Consider 1 compound from patent publication US20240082260A1, “INHIBITOR OF PROTEIN KINASE D FOR USE IN PREVENTION OR TREATMENT OF HYPERLIPIDEMIA” (priority 2021, published 2024).

In data set [1] the test system is phosphorylated PKD2. Particulars: oral 10 mg/kg once a day, HFD. On the procedure:
(§1) PKD inhibitor CRT0066101 was dissolved in water (10 mg/kg) and administered orally to the mice by daily gavage, while the control mice were gavaged with water. Mice were maintained on the specified diets and had ab libitum access to food and water. C57BL/6 mice were administered CRT inhibitor treatment at 4-weeks of age, while for the rescue experiment, inhibitor was given under the same circumstances but treatment started only after 7 weeks of HFD feeding. Intestinal barrier permeability was further assessed 1 hour after oral gavage of FITC-Dextran 4.
(§2) Proteins from tissues and cell culture were extracted with RIPA buffer supplemented with phosphatase and protease inhibitor (PPI, Thermo Fisher Scientific). Protein concentration was measured by Pierce™ BCA Protein Assay Kit (Thermo Fisher Scientific) following the manufacturer's protocol. Reduced protein extracts were separated on 10% SDS-PAGE gels by electrophoresis and transferred to PVDF membranes under wet transfer. Membranes were blocked in 5% (w/v) milk in TBS-T before overnight probing with indicated primary antibodies at 4° C., followed by TBS-T washes and incubation with corresponding secondary antibody.

Data set [2] relates to Caco2 cells. The data set can be described thus: Lipid transport (14C-fatty acid release) through Caco2 monolayer in transwell system. The data set is classed as cell-based, human. Particulars: 24 h. On the procedure:
Lipid transport studies were assessed in Caco2 cells seeded in trans-wells. 1.5×10^5 cells were seeded into a 12-well cell culture insert of 1 μm pore size Trans-well and maintained in for 14 consecutive days with media change every two days. For the lipids uptake and release, the apical side of the membrane was loaded with radioactive ^14C-palmitic acid (0.2 μCi), oleic acid (1 mM), and taurocholic acid (2 mM) in DMEM high glucose 10% FBS. The basal medium contained DMEM high glucose 0.1% FBS. After 24 hours of incubation, cell lysates and the apical and basolateral medium was collected and the ^14C-palmitic acid was measured in a scintillation counter for aliquots of apical and basal medium and for cell lysate. The same protocol was used in Caco2 cells that were treated with CRT0066101 (3 and 5 μM) for 24 h (added together with the mentioned radioactive fatty acid cocktail).
In order to test the potential of PKD inhibitors to restrict lipid transport via epithelial monolayer, we employed Caco2 cells seeded into the Transwells system. Briefly, we plated 1.5×10^5 cells seeded into a 12-well cell culture inserts of 1-μm pore size Transwell and maintained in for 14 consecutive days with media change every 2 days. For the lipid uptake and release, the apical side of the membrane was loaded with radioactive 14C-palmitic acid (0.2 μCi), oleic acid (1 mM), and taurocholic acid (2 mM) in DMEM high glucose 10% FBS. The basal medium contained DMEM high glucose 0.1% FBS. After 24 h of incubation, cell lysates and the apical and basolateral medium were collected and the 14C-palmitic acid was measured in a scintillation counter for aliquots of apical and basal medium and for cell lysate. To assess the efficiency of different PKD inhibitors, Caco2 cells were treated with either CRT0066101 (5 μM), CID2011756 (20 μM), CID755673 (20 μM), 1-NM-PP1 (20 μM), or control solvent solution (DMSO) for 24 h (added together with the mentioned radioactive FA cocktail).
A general note: Caco-2 cells form a polarised layer with tight junctions and transporters.

The test system of data set [3] is PKD 1/2. The conditions noted are these: oral, dose 8 times higher than used here, cited from earlier work.
Data set [4] concerns male C57BL/6 mice on HFD. As to the kind of experiment: Oral PKD inhibitor in HFD-fed C57BL/6 mice (diet-induced obesity and diabetes). The data set is classed as in vivo, mouse. As for the experimental part:
Mice body weight development was closely monitored and reported here on a weekly basis when mice were on a specified diet. All experiments were performed in male mice.
as §1
Energy expenditure, food intake, and activity measurements were obtained in a PhenoMaster (TSE Systems) as previously described (El-Merahbi, Viera et al., 2020, Trujillo Viera, El-Merahbi et al., 2016). Briefly, mice were kept in separate metabolic cages with unlimited access to water and to the specified diet. After 48 hours of acclimation, data was collected every 10 min including photobeam breaks, oxygen consumption, carbon dioxide dissipation, and food and water consumption. Results in bars represent the average of each night/day cycle.
(§3) A glucose tolerance test (GTT) was performed after overnight fasting. Mice blood glucose was assessed before and 15, 30, 60, 90, and 120 minutes after intraperitoneal injection of glucose (2 g/kg). For the Insulin tolerance test (ITT), the same measurements were performed after 4 hours of fasting and intraperitoneal injection of 0.5 U/kg of recombinant insulin. For glucose measurements, one blood drop was drawn from the tail tip into a test strip and measured with a glucometer (Accu-Chek® Roche).
Lipids tolerance test was performed as described previously (Wang, Rong et al., 2016b). Briefly, overnight fasted mice were gavaged with olive oil (10 μL/g body weight). Blood was collected at indicated times for measurement of serum triglycerides content. For lipids absorption under tyloxapol treatment, 250 μg/g of body weight were i.p. injected to mice 30 minutes before the gavage of olive oil 5 μL/g body weight.
Liver triglycerides were measured by homogenization of 50 mg of liver in 500 uL of lysis buffer and lipids extraction in methanol:chloroform, phase extraction and evaporation. The lipids were redissolved in DMSO and triglycerides quantified with the mentioned kit and according to the manufacturers' instructions.
The bedding of single-caged mice was collected and the ingested food ingestion from the individual mice was assessed. All the stools were manually collected. After overnight dissecation at 60° C., the samples were weighted and frozen for further analysis. The amount of feces produced per mouse was compared to the amount of food consumed and the weight gain. About 3 g of dried feces material were homogenized and 1 g was pressed into a tablet and accurately weighted. Calorie content from feces and diet was measured in duplicates in a 6400 Automatic Isoperibol calorimeter (Parr Instrument Company). To analyze energy excreted, the amount of energy in feces was compared to the amount of energy ingested (the product between grams of food and caloric content of the food). Lipids extraction from feces was performed as previously described (Kraus, Yang et al., 2015).
as §2

Data set [5] concerns male C57BL/6 mice on HFD. As to the kind of experiment: Oral PKD inhibitor in mice with pre-established obesity (rescue, treatment after 7 weeks of HFD). The data set is classed as in vivo, mouse. On the procedure:
as §3, with “Mice body weight development was closely monitored and reported here on a weekly basis when mice were on a specified diet. All experiments were performed in male mice. […] A glucose” for “A glucose”

Take `CC[C@@H](N)CNc1ccnc(-c2cc(-c3cnn(C)c3)ccc2O)n1` [CRT0066101]: in data set [1], the “PKD activity in liver or adipose tissue” value is “no similar decrease was observed”. The “intestinal PKD activity (phosphorylated PKD2 in jejunum)” value in data set [1] (13 weeks, FIG. 6C) is listed as “attenuated”. In addition, the “lipid transport through the Caco2 monolayer” value in data set [2] (5 μM, vs DMSO, FIG. 8) is listed as “significant reduction in lipid transport”. Further, the “TG secretion (basolateral release of 14C-labeled fatty acids)” value in data set [2] (Caco2 transwell, 3 and 5 μM, FIG. 6A) is “reduces TG secretion in a dose dependent manner”. In addition, the “reduction in PKD 1/2 activation” value in data set [3] (pancreatic tumors) was 50%. Also, in data set [3], the “time of highest concentrations in pancreatic tumors” value is 2 h. Further, in data set [4] (oral 10 mg/kg daily, HFD), the “accumulation of TG in the liver” value is listed as “did not affect”; the “brown adipose tissue morphology” value is given as “promoted healthier, multilocular brown adipose tissue”; the energy expenditure result is “did not affect”; the food consumption result is “did not affect”. In data set [4] (oral 10 mg/kg daily, HFD), the “markers of liver function” value is recorded as “did not affect” and the mobility result is “did not affect”. Besides, in data set [4] (oral 10 mg/kg daily, HFD, 13 weeks, vs water, FIG. 6G), the body weight gain result is given as “significantly lower body weight gain”. Also, the “levels of APOA4 in the intestine (jejunum, western blot)” value in data set [4] (oral 10 mg/kg daily, HFD, 13 weeks, FIG. 6F) is recorded as “increased levels of APOA4”. In addition, the fecal energy excretion entry in data set [4] (oral 10 mg/kg daily, HFD, FIG. 6D) is “greater fecal energy excretion”. The “intestinal TG absorption (lipids tolerance test after olive oil gavage)” value in data set [4] (oral 10 mg/kg daily, after 9 weeks HFD, FIG. 6E) is “decreased intestinal TG absorption”. The “glucose tolerance (GTT)” value in data set [4] (oral 10 mg/kg daily, after 10 weeks of treatment and HFD, FIG. 6H) is “improved”. Further, the “insulin tolerance (ITT)” value in data set [4] (oral 10 mg/kg daily, after 11 weeks of treatment and HFD, FIG. 6I) is reported as “improved”. In addition, the “obesity induced by a high-fat diet (summary statement)” value in data set [4] (oral administration, mice, also said to prevent hyperlipidemia and diabetes and improve microflora) was “significantly reduces obesity induced by a high-fat diet”. In data set [5] (8 weeks after starting treatment, FIG. 7D), the glucose tolerance result was “improved glucose tolerance”. Moreover, the insulin sensitivity entry in data set [5] (10 weeks after starting treatment, FIG. 7E) is on record as “improved”. Further, the weight gain entry in data set [5] (treatment started after 7 weeks HFD, HFD continued, vs water, FIG. 7A) is “significantly decreased weight gain”. Besides, the “obesity (fat depots, fat mass by NMR)” value in data set [5] (treatment started after 7 weeks HFD, FIG. 7B-C) is listed as “less obesity”.
